Experimental data from ChEMBL document CHEMBL1148561, “Design, synthesis, and biological evaluation of the N-diarylalkenyl-piperidinecarboxylic acid derivatives as GABA uptake inhibitors (I)” (Bioorg Med Chem Lett, 2006).

molecular target: Sodium- and chloride-dependent GABA transporter 1 (Homo sapiens, UniProt P30531); assay: Inhibition of GAT1 transport activity
Sequence (P30531 whole entry): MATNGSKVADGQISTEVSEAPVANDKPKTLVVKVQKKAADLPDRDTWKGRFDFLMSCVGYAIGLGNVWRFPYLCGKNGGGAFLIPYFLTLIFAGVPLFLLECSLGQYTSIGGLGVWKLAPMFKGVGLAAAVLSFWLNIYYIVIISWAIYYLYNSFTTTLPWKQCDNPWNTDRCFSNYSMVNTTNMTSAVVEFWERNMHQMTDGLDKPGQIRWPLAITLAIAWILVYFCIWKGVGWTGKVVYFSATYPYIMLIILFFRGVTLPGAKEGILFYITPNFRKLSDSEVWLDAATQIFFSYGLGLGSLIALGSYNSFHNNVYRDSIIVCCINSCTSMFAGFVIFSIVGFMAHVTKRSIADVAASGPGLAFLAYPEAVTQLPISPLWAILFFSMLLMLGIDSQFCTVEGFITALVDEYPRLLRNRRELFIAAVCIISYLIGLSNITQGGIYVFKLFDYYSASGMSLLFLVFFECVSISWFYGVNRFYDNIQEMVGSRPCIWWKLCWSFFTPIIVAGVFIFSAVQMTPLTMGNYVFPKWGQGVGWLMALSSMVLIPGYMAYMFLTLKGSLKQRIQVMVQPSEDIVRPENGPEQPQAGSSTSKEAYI

Row | SMILES | IC50 [nM]
1 | O=C(O)[C@@H]1CCCN(CCC=C(c2sccc2COCc2ccccc2)c2sccc2COCc2ccccc2)C1 | 840
2 | CC(C)OCc1ccsc1C(=CCCN1CCCCC1C(=O)O)c1sccc1COC(C)C (stereo not given) | > 100000
3 | COCc1ccsc1C(=CCCN1CCC[C@@H](C(=O)O)C1)c1sccc1COC | 2800
4 | O=C(O)[C@@H]1CCCN(CCC=C(c2sccc2COC2CCCCC2)c2sccc2COC2CCCCC2)C1 | 680
5 | Cc1ccsc1C(=CCCN1CCC(C(=O)O)CC1)c1sccc1C | > 100000
6 | O=C(O)C1CCN(CCC=C(c2sccc2COC2CCCCC2)c2sccc2COC2CCCCC2)CC1 | 1240
7 | COCc1ccsc1C(=CCCN1CCC(C(=O)O)CC1)c1sccc1COC | > 100000
8 | O=C(O)C1CCN(CCC=C(c2sccc2COc2cccc3ccccc23)c2sccc2COc2cccc3ccccc23)CC1 | > 100000
9 | O=C(O)[C@@H]1CCCN(CCC=C(c2sccc2COc2cccc3ccccc23)c2sccc2COc2cccc3ccccc23)C1 | 66300
10 | CC(C)OCc1ccsc1C(=CCCN1CCC[C@@H](C(=O)O)C1)c1sccc1COC(C)C | 7100
11 | CC(C)OCc1ccsc1C(=CCCN1CCC(C(=O)O)CC1)c1sccc1COC(C)C | > 100000
12 | Cc1ccsc1C(=CCCN1CCCCC1C(=O)O)c1sccc1C (stereo not given) | 1360
13 | O=C(O)C1CCCCN1CCC=C(c1sccc1COCc1ccccc1)c1sccc1COCc1ccccc1 (stereo not given) | 27600
14 | O=C(O)C1CCN(CCC=C(c2sccc2COCc2ccccc2)c2sccc2COCc2ccccc2)CC1 | 4340
15 | O=C(O)[C@@H]1CCCN(CCC=C(c2sccc2COc2ccccc2)c2sccc2COc2ccccc2)C1 | 340
16 | COCc1ccsc1C(=CCCN1CCCCC1C(=O)O)c1sccc1COC (stereo not given) | 12300
17 | O=C(O)C1CCCCN1CCC=C(c1sccc1COC1CCCCC1)c1sccc1COC1CCCCC1 (stereo not given) | 940
18 | O=C(O)C1CCCCN1CCC=C(c1sccc1COc1cccc2ccccc12)c1sccc1COc1cccc2ccccc12 (stereo not given) | > 100000
19 | O=C(O)C1CCN(CCC=C(c2sccc2COc2ccccc2)c2sccc2COc2ccccc2)CC1 | 1500
20 | O=C(O)C1CCCCN1CCC=C(c1sccc1COc1ccccc1)c1sccc1COc1ccccc1 (stereo not given) | 650
